# Experimental data reported in ChEMBL document CHEMBL3872248, “Discovery and initial optimization of alkoxyanthranilic acid derivatives as inhibitors of HCV NS5B polymerase” (Bioorg Med Chem Lett, 2017).
# Active and inactive are the calls of the source. The calls are words filed in the database; no cut-off is given here.
# Key:
# [1] = Inhibition of wild-type HCV genotype 1b Con1 C-terminal truncated NS5B RNA dependent RNA polymerase expressed in Escherichia coli BL21(DE3) Star assessed as inhibition of [alpha-32P]UTP incorporation using polyrA/T12 as template/primer measured after 60 mins by TopCount NXT method; design: species or system Hepatitis C virus (isolate Con1)
# [2] = biological target: RNA-directed RNA polymerase (Hepacivirus hominis, UniProt O39930, C316Y); assay: Inhibition of wild-type HCV genotype 1b Con1 NS5B RNA dependent RNA polymerase C316Y mutant expressed in Escherichia coli BL21(DE3) Star assessed as inhibition of [alpha-32P]UTP incorporation using polyrA/T12 as template/primer measured after 60 mins by TopCount NXT method; design: species or system Hepatitis C virus (isolate Con1)
# [3] = test system: Hepatitis C virus; assay: Antiviral activity against HCV genotype 1b Con1 expressing C-terminal truncated NS5B assessed as inhibition of viral RNA production at 50 uM by high throughput screening method; format: functional; conditions: Hepacivirus hominis
# [4] = test system: Hepatitis C virus; assay: Antiviral activity against HCV genotype 1b Con1 expressing NS3 protease infected in human Huh-7 cells assessed as reduction in viral RNA replication measured after 3 days by EnduRen-based luciferase reporter gene assay; format: functional, cell-based, Hepacivirus hominis; conditions: genotype 1b Con1, Huh-7, 72 h
# Sequence of RNA-directed RNA polymerase (O39930 entry or part of it C316Y): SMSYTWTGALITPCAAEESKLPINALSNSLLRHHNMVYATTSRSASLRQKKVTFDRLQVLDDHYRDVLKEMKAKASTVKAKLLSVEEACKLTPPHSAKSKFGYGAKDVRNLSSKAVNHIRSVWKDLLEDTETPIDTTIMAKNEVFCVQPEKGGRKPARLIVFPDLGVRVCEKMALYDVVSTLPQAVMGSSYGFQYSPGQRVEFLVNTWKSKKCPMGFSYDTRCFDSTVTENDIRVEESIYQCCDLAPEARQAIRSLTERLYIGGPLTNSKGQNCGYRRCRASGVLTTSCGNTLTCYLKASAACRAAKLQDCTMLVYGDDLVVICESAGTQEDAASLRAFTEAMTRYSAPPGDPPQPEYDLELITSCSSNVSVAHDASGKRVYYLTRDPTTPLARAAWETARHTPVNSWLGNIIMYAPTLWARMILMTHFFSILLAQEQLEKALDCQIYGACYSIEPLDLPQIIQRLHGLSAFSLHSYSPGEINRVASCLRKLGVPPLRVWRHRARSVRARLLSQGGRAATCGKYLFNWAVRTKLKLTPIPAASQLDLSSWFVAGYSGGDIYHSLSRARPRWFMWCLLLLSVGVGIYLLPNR
SMILES,IC50 [1] [µM],also measured
O=C(O)CNC(=O)c1ccc(OCc2ccc(Cl)cc2)c(NC(=O)c2ccccc2)c1,6.2,–
CN(C(=O)c1ccccc1)c1c(OCc2ccc(Cl)cc2)cccc1C(=O)O,> 50,–
O=C(O)c1cccc(OCc2ccc(Cl)cc2)c1N1CCCc2ccccc2C1=O,32,–
CS(=O)(=O)NC(=O)c1ccc(OCc2ccc(Cl)cc2)c(NC(=O)c2ccccc2)c1,15,–
O=C(Nc1c(OCc2ccc(Cl)cc2)cccc1C(=O)O)c1ccccc1O,4.6,–
O=C(O)COc1ccccc1C(=O)Nc1c(OCc2ccc(Cl)cc2)cccc1C(=O)O,1.2,–
O=C(O)/C=C/c1cccc2c1CN(c1c(OCc3ccc(Cl)cc3)cccc1C(=O)O)C2=O,1.7,–
O=C(NCCO)c1ccc(OCc2ccc(Cl)cc2)c(NC(=O)c2ccccc2)c1,> 50,–
O=C(Nc1c(OCc2ccc(Cl)cc2)cccc1C(=O)NCCO)c1ccccc1,> 50,–
O=C(Nc1c(OCc2ccc(Cl)cc2)cccc1C(=O)O)c1ccccc1,8.4,IC50 [2]: > 50 µM; inhibition [3]: Active
CS(=O)(=O)NC(=O)c1cccc(OCc2ccc(Cl)cc2)c1NC(=O)c1ccccc1,24,–
O=C(O)COc1cccc2c1CN(c1c(OCc3ccc(Cl)cc3)cccc1C(=O)O)C2=O,4.4,–
O=C(O)CCCOc1ccccc1C(=O)Nc1c(OCc2ccc(Cl)cc2)cccc1C(=O)O,2.1,–
O=C(O)c1cccc(OCc2ccc(Cl)cc2)c1N1Cc2c(O)cccc2C1=O,6.6,–
O=C(O)CNC(=O)c1ccc(OCc2ccc(Cl)cc2)c(N2Cc3ccccc3C2=O)c1,0.88,EC50 [4]: > 100 µM
O=C(O)c1ccc(OCc2ccc(Cl)cc2)c(NC(=O)c2ccccc2)c1,8.3,–
O=C(O)c1cccc(OCc2ccc(Cl)cc2)c1N1Cc2ccccc2C1=O,8.7,–
O=C(O)Cc1cccc(OCc2ccc(Cl)cc2)c1NC(=O)c1ccccc1,10,–
O=C(Nc1c(OCc2ccc(Cl)cc2)cccc1-c1nnn[nH]1)c1ccccc1,25,–
O=C(O)CCCOc1cccc2c1CN(c1c(OCc3ccc(Cl)cc3)cccc1C(=O)O)C2=O,11,–
